Measurements published in ChEMBL document CHEMBL5230124, “Advances of CCR5 antagonists: From small molecules to macromolecules” (Eur J Med Chem, 2020).
Converted amounts (≈) assume the structure as drawn. Values belong to the compound of their own block, whether it stands above or below them.

Experiments:
[1] = Antifertility activity against human Spermatozoa assessed as decrease in sperm motility for 120 mins by hematocytometer analysis; assay type: functional, cell-based
[2] = Half life in human plasma; assay type: ADME, cell-free
[3] = AUC in Wistar rat at 10 mg/kg, IM administered as H3-lableled compound by scintillation counting method; assay type: ADME, organism-based; set-up: dose 10 mg/kg, route im; conditions: in vivo
[4] = Terminal half life in Wistar rat at 10 mg/kg, IM administered as H3-lableled compound by scintillation counting method; assay type: ADME, organism-based; conditions: in vivo

EC50 [1]: 1500 µg/mL (≈ 2580 µM)
SMILES: CCN(Cc1ccccc1)C(=O)C1CCN(CCCN(C(=O)C2CCN(C(C)=O)CC2)c2ccc(C)c(Cl)c2)CC1

half-life [2]: 30 h
SMILES: CCCCOCCOc1ccc(-c2ccc3c(c2)/C=C(/C(=O)Nc2ccc([S@@+]([O-])Cc4cncn4CCC)cc2)CCCN3CC(C)C)cc1 [CENICRIVIROC]

AUC [3]: 567.17 ng·h/mL
beta t1/2 [4]: 53.23 h
SMILES: Cc1nnc(C(C)C)n1[C@H]1C[C@H]2CC[C@@H](C1)N2CC[C@H](NC(=O)C1CCC(F)(F)CC1)c1ccccc1 [MARAVIROC]
